Data: patent US8809536B2, “2,3-dihydrobenzo[1,4] dioxin-2-ylmethyl derivatives as alpha2C antagonists for use in the treatment of peripheric and central nervous system diseases” (Orion Corporation, priority 2007, dated 2014)

Tests used:
human alpha2C receptors = target: T1, human alpha2C receptors (Homo sapiens, UniProt P18825); test: Determination of alpha2C antagonistic activity in vitro (intracellular calcium, FLIPR Calcium 3 Assay, FLEXstation); format: cell-based; settings: CHO cells stably transfected with human alpha2C receptor and Gα16; stimulated with 100 nM adrenaline or 200 nM noradrenaline
T1 construct: host or cells: CHO cells, cotransfected with expression vector pCEP-Galpha16
T1 sequence (P18825 1-462): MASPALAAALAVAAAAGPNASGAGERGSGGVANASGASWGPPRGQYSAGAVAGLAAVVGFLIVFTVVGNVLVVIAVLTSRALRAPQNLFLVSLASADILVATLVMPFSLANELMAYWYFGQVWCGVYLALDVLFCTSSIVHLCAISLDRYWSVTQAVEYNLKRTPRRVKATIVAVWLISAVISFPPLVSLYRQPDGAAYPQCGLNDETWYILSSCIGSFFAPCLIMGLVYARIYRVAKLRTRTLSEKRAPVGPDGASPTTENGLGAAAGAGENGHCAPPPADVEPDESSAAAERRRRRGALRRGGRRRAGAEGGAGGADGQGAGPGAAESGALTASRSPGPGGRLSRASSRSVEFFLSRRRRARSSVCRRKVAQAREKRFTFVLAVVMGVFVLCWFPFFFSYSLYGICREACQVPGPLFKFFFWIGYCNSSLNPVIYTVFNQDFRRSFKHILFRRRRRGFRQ
Protocol: (§1) Chinese hamster ovary (CHO) cells stably transfected with human alpha2A and alpha2C or rodent alpha2D receptors (University of Turku, Finland) were cotransfected with the expression vector pCEP-Gα16 (Molecular Devices, CA, USA) and CHO cells stably transfected with human adrenergic alpha2B receptors and mitochondrially targeted aequorin (Euroscreen, Belgium) were used in this experiment. The cells were maintained at 37° C. in a 5% CO2/95% air atmosphere. The cells were cultured in HAM F-12 medium supplemented with 10% FCS, 25 mM HEPES, 100 IU/ml penicillin, 100 μg/ml streptomycin, 500 μg/ml geneticin and 240 μg/ml hygromycin B. The cells were subcultured twice weekly with 0.25% trypsin and 1 mM EDTA. The subculture ratio was 1:5-1:20. The growth medium was changed every 2 or 3 days. All cell culture reagents were from Gibco. The day before the experiment the cells were plated into black-walled, clear bottom 96-well plates at a density of 30,000-45,000 cells/well.
(§2) The growth medium was removed and the cells were incubated with the test compounds and the FLIPR Calcium 3 Assay reagent (Molecular Devices, CA, USA) for 1 h at 37° C. in dark. The test compounds (concentrations in cells 100 pM-10 μM) were dissolved in Probenecid-Ringer consisting of 150 mM NaCl, 3 mM KCl, 1.2 mM MgCl2, 1 mM CaCl2, 5 mM glucose, 20 mM HEPES and 2.5 mM probenecid (pH 7.4 adjusted with 1.0 M NaOH). The osmolarity was adjusted to 322 milliosmoles with Osmostat® OM-6020 osmometer (DIC Kyoto Daiichi Kagagu Co. Ltd, Japan). […] All experiments were performed at 37° C. The test compounds dissolved in Probenecid-Ringer were applied by FLEX station at 17 s time point. […] In order to determine antagonism, the cells were stimulated either with 100 nM adrenaline or 200 nM noradrenaline and the test compounds were added to the cells at least 5 min before the experiment. Typically, there were four replicates at each concentration and seven different dose levels. For example, if the number of plates from which results were obtained was three, 84 (4*7*3) wells were thus measured to construct dose-response relationship. The samples were excited at 485 nm and emission was detected at 525 nm with a 515 nm cut-off filter. Reading time was 60 s per well and the photomultiplier sensitivity value was set to 15. The minimum fluorescence value subtracted from the maximum value for each well was used in the calculations. SOFTmax PRO version 3.2 software was used for analyzing the results. Fitting of the antagonist dose-response results was performed with the free Hill equation and the IC50 values were fitted with Michaelis-Menten equation in Sigma Plot 8.0.

human alpha2A receptors = target: T2, human alpha2A receptors (Homo sapiens, UniProt P08913); test: Determination of alpha2A antagonistic activity in vitro (intracellular calcium, FLIPR Calcium 3 Assay, FLEXstation); format: cell-based; settings: CHO cells stably transfected with human alpha2A receptor and Gα16; stimulated with 100 nM adrenaline or 200 nM noradrenaline
T2 construct: host or cells: CHO cells, cotransfected with expression vector pCEP-Galpha16
T2 sequence (P08913 1-465): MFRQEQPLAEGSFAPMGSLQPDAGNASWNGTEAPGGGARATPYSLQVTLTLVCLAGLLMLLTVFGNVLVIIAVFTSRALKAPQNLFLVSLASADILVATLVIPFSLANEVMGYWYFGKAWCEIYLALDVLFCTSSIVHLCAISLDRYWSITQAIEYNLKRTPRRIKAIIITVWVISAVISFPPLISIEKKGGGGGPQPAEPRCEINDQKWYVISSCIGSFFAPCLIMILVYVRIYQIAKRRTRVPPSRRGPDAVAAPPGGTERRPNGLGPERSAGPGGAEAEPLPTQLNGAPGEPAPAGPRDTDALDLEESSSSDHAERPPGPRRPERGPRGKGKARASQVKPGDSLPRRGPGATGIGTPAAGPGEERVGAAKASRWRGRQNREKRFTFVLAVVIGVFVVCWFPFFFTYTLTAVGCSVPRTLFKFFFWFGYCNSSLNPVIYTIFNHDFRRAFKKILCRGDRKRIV
Protocol: as §1, §2

Row | Compound | IC50 (human alpha2C receptors) [µM] | IC50 (human alpha2A receptors) [µM]
1 | CCC1(COC)CCCN(CC2COc3ccccc3O2)C1 (stereo not drawn) [Example 63, 1-(2,3-Dihydrobenzo[1,4]dioxin-2-ylmethyl)-3-ethyl-3-methoxymethylpiperidine] | 0.0008 | 2.73
2 | CC1(COCC(F)(F)F)CCCN(CC2COc3ccccc3O2)C1 (stereo not drawn) [Example 74, 1-(2,3-Dihydrobenzo[1,4]dioxin-2-ylmethyl)-3-methyl-3-(2,2,2-trifluoroethoxymethyl)-piperidine] | 0.0074 | 0.346
3 | Oc1ccccc1C1CCCN(CC2COc3ccccc3O2)C1 (stereo not drawn) [Example 12, 2-[1-(2,3-Dihydrobenzo[1,4]dioxin-2-ylmethyl)piperidin-3-yl]phenol] | 0.0196 | 0.374
4 | C[C@]1(COCCO)CCCN(C[C@H]2COc3ccccc3O2)C1 [Example 89, 2-{(S)-1-[(S)-1-(2,3-Dihydrobenzo[1,4]dioxin-2-yl)methyl]-3-methylpiperidin-3-ylmethoxy}-ethanol D-tartrate] | 0.0006 | 2.14
5 | C=CCC1(CO)CCCN(CC2COc3ccccc3O2)C1 (stereo not drawn) [Example 71, [3-Allyl-1-(2,3-dihydrobenzo[1,4]dioxin-2-ylmethyl)piperidin-3-yl]methanol] | 0.0011 | 1.15
6 | CC1(COS(C)(=O)=O)CCCN(CC2COc3ccccc3O2)C1 (stereo not drawn) [Example 61, Methanesulfonic acid 1-(2,3-dihydrobenzo[1,4]dioxin-2-ylmethyl)-3-methylpiperidin-3-ylmethyl ester] | 0.0024 | 2.87
7 | c1ccc2c(c1)OCC(CN1CCC3CCCCC3C1)O2 (stereo not drawn) [Example 48, 2-(2,3-Dihydrobenzo[1,4]dioxin-2-ylmethyl)decahydroisoquinoline] | 0.0074 | 1.47
8 | COC(C)(C)C1(C)CCCN(CC2COc3ccccc3O2)C1 (stereo not drawn) [Example 58, 1-(2,3-Dihydrobenzo[1,4]dioxin-2-ylmethyl)-3-(1-methoxy-1-methylethyl)-3-methylpiperidine] | 0.0095 | 0.776
9 | c1ccc(C2CCCN(CC3COc4ccccc4O3)C2)cc1 (stereo not drawn) [Example 2, 1-(2,3-Dihydrobenzo[1,4]dioxin-2-ylmethyl)-3-phenylpiperidine] | 0.0114 | 3.78
10 | OCc1cccc(C2CCCN(C[C@H]3COc4ccccc4O3)C2)c1 (stereo in doubt) [Example 29, (3-{(R*)-1-[(S)-1-(2,3-Dihydrobenzo[1,4]dioxin-2-yl)methyl]piperidin-3-yl}phenyl)methanol] | 0.0054 | 4.36
11 | Fc1ccc(C2CCCN(C[C@H]3COc4ccccc4O3)C2)cc1 (stereo in doubt) [Example 18, (R*)-1-[(S)-1-(2,3-Dihydrobenzo[1,4]dioxin-2-yl)methyl]-3-(4-fluorophenyl)piperidine] | 0.0695 | > 10
12 | C=CCC1(COC)CCCN(CC2COc3ccccc3O2)C1 (stereo not drawn) [Example 72, 3-Allyl-1-(2,3-dihydrobenzo[1,4]dioxin-2-ylmethyl)-3-methoxymethylpiperidine] | 0.0009 | 0.635
13 | C[C@]1(C(=O)O)CCCN(C[C@H]2COc3ccccc3O2)C1 [Example 86, Lithium (S)-1-[(S)-1-(2,3-dihydrobenzo[1,4]dioxin-2-yl)methyl]-3-methyl-piperidine-3-carboxylate] | 0.0107 | 8.42
14 | C[C@]1(COCC(=O)O)CCCN(C[C@H]2COc3ccccc3O2)C1 [Example 96, Sodium {(S)-1-[(S)-1-(2,3-dihydrobenzo[1,4]dioxin-2-yl)methyl]-3-methylpiperidin-3-yl-methoxy}acetate] | 0.0046 | 5.44
15 | C=CCOCC1(C)CCCN(CC2COc3ccccc3O2)C1 (stereo not drawn) [Example 69, 3-Allyloxymethyl-1-(2,3-dihydrobenzo[1,4]dioxin-2-ylmethyl)-3-methyl-piperidine] | 0.0017 | 1.29
